Experimental findings from ChEMBL document CHEMBL1921798, “Discovery of a potent, selective, and orally available class I phosphatidylinositol 3-kinase (PI3K)/mammalian target of rapamycin (mTOR) kinase inhibitor (GDC-0980) for the treatment of cancer” (J Med Chem, 2011) are described below.

Series [1] in a line: in vitro. Particulars: human, plasma.
Description: Plasma protein binding in human
Series [2] is described as follows: physchem. The settings on record: octanol/water.
Description: Lipophilicity, log D of the compound
The nature of series [3]: physchem. The settings on record: buffer, pH 6.5.
Description: Thermodynamic solubility of the compound at pH 6.5
The target in series [4] is Phosphatidylinositol 4,5-bisphosphate 3-kinase catalytic subunit beta isoform (Homo sapiens, UniProt P42338).
Description: Inhibition of PI3K subunit p110beta assessed as formation of phosphatidylinositide-3-phosphate product formation after 30 mins by fluorescence polarization assay
Series [5] has as its target Serine/threonine-protein kinase mTOR (Homo sapiens, UniProt P42345).
Description: Inhibition of human recombinant mTOR expressed in insect cells assessed as phosphorylation of recombinant (GFP)-4-EBP1 measured after 30 mins by fluorescence polarization assay
The target in series [6] is Phosphatidylinositol 4,5-bisphosphate 3-kinase catalytic subunit gamma isoform (Homo sapiens, UniProt P48736).
The target of series [7] is Phosphatidylinositol 4,5-bisphosphate 3-kinase catalytic subunit alpha isoform (Homo sapiens, UniProt P42336).
Description: Inhibition of PI3K subunit p110alpha assessed as formation of phosphatidylinositide-3-phosphate product formation after 30 mins by fluorescence polarization assay
Series [8] concerns the target T1, Phosphatidylinositol 4,5-bisphosphate 3-kinase catalytic subunit delta isoform (Homo sapiens, UniProt O00329).
T1 sequence (O00329 whole entry): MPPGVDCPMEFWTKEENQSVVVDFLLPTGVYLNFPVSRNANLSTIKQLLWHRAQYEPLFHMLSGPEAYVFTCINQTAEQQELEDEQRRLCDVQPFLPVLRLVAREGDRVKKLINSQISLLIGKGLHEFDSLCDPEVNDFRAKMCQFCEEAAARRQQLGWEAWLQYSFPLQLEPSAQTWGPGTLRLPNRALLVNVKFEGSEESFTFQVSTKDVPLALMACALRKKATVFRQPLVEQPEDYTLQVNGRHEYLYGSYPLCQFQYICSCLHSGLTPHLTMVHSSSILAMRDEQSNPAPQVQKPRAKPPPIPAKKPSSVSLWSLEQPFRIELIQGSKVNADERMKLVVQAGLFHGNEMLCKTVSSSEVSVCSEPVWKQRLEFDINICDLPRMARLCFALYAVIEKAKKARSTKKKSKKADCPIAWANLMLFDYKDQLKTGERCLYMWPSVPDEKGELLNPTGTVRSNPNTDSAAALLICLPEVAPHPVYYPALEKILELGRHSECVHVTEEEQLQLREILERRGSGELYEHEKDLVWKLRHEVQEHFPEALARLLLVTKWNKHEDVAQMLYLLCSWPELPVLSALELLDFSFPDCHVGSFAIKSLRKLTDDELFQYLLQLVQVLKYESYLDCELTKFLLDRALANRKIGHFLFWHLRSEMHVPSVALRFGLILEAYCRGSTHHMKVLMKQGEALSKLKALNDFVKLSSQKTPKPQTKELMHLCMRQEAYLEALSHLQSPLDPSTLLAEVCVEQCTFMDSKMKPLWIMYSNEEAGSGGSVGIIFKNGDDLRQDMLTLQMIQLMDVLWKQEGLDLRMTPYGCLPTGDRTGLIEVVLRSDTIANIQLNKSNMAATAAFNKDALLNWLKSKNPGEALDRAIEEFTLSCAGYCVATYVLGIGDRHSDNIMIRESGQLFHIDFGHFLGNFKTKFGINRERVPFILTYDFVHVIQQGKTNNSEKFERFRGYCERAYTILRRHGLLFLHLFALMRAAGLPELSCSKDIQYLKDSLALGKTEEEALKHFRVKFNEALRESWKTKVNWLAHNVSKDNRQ

Series [9] in a line: in vivo. Particulars: Sprague-Dawley, rat, plasma, iv, 1 mg/kg.
The nature of series [10]: in vivo. The settings on record: beagle, dog, plasma, iv, 1 mg/kg.
Series [11] is described as follows: in vivo. Particulars: Sprague-Dawley, rat, po, 1 mg/kg.

Converted amounts (≈) assume the structure as drawn.

Chain of Phosphatidylinositol 4,5-bisphosphate 3-kinase catalytic subunit beta isoform (P42338 whole entry, canonical isoform): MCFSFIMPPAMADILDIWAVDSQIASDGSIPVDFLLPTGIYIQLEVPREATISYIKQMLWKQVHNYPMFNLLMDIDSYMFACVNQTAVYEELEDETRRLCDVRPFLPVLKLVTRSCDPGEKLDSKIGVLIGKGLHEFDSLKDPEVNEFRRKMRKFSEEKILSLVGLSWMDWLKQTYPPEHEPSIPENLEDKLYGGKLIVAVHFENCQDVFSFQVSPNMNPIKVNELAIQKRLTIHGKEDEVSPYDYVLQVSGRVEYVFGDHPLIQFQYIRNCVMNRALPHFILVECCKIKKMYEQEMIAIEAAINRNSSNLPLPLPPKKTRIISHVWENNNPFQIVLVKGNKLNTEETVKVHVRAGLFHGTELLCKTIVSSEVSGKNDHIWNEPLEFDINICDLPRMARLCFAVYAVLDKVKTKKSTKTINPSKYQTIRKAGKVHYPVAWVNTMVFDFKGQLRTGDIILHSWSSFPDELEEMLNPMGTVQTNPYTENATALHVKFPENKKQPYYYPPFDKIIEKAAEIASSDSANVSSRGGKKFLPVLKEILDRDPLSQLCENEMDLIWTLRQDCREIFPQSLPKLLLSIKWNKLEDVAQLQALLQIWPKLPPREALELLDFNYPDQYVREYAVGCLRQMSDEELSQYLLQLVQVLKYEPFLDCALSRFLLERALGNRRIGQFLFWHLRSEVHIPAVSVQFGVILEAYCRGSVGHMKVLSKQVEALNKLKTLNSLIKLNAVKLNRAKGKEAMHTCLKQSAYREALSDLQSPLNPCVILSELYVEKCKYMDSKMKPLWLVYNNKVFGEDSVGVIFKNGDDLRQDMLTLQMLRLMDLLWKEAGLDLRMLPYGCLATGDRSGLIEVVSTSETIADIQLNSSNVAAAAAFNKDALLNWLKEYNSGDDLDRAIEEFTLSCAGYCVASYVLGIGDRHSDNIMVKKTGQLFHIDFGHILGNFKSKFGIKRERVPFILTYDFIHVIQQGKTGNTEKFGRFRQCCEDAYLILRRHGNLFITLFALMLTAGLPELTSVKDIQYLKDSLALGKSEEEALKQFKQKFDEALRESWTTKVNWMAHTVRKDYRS
Chain of Phosphatidylinositol 4,5-bisphosphate 3-kinase catalytic subunit gamma isoform (P48736 whole entry, canonical isoform): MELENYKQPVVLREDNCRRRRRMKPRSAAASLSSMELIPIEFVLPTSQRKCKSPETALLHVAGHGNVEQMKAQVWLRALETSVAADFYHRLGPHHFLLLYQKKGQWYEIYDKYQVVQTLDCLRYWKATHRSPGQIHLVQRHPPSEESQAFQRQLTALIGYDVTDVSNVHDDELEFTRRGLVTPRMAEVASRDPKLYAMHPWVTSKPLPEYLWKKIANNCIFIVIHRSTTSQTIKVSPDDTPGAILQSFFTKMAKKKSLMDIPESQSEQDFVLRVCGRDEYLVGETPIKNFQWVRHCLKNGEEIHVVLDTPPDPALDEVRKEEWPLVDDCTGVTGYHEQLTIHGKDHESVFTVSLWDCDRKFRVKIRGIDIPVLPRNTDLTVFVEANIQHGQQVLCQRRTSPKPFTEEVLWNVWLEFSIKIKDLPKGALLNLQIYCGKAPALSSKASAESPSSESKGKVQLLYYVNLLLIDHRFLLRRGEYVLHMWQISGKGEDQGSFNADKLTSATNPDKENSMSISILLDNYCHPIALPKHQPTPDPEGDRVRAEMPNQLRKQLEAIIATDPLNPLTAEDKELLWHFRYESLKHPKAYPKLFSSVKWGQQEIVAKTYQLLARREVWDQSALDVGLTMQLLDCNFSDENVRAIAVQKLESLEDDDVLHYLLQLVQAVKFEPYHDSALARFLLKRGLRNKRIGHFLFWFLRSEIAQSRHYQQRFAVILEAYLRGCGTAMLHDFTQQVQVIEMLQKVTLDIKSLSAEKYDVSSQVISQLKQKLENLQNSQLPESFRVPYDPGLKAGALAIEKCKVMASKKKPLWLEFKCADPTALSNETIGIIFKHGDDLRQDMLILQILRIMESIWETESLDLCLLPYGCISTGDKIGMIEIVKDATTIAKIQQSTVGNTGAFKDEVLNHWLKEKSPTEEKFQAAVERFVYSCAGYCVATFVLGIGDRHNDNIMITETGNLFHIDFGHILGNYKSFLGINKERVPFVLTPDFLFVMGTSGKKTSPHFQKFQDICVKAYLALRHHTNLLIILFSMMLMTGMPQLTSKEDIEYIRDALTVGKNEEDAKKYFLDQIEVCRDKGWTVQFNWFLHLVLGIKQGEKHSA
Chain of Phosphatidylinositol 4,5-bisphosphate 3-kinase catalytic subunit alpha isoform (P42336 whole entry, canonical isoform): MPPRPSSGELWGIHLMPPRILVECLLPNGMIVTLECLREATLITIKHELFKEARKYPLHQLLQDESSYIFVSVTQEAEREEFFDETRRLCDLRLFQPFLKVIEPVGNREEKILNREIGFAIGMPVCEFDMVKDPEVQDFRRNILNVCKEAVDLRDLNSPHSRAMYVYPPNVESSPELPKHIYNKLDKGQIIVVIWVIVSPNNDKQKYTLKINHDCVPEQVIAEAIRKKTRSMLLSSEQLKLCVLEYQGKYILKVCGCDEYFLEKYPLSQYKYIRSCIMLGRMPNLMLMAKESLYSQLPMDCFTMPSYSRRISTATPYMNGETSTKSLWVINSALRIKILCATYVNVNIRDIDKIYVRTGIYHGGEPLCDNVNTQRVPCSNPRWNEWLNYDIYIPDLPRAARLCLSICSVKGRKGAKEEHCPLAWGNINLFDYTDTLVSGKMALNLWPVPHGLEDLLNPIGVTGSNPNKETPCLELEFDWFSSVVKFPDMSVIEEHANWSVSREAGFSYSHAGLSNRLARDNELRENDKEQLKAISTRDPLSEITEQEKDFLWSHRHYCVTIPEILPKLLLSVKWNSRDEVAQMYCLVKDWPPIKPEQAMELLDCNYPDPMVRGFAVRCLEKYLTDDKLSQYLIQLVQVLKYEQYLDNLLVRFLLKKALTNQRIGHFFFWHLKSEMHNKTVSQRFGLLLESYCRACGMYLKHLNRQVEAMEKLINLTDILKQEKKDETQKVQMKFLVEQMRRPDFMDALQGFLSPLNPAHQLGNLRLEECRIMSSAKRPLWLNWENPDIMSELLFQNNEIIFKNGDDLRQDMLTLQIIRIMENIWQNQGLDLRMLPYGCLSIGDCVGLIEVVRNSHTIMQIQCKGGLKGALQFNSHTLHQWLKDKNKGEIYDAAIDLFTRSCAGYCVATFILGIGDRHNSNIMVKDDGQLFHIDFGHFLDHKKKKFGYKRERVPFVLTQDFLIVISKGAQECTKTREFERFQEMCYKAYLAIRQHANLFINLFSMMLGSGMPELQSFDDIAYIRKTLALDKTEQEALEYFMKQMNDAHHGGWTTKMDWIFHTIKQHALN

Consider `CS(=O)(=O)N1CCN(Cc2cc3nc(-c4cnc(N)nc4)nc(N4CCOCC4)c3s2)CC1`, for which the unbound share (fraction unbound) in [1] was 0.49. Also, the logD in series [2] turned out to be 1.3. The same compound returned a thermodynamic solubility in series [3] of 24 µg/mL (≈ 48.9 µM).

`Cc1c(CN2CCN(S(C)(=O)=O)CC2)sc2c(N3CCOCC3)nc(-c3cnc(N)nc3)nc12` showed a fraction unbound in series [1] of 0.23. Also, the thermodynamic solubility in [3] came to 9 µg/mL (≈ 17.8 µM).

Turning to `Cc1c(CN2CCN(C(=O)CN)CC2)sc2c(N3CCOCC3)nc(-c3cnc(N)nc3)nc12`, the IC50 worked out at 11 nM in series [4], 17 nM in [6], 0.7 nM in [7] and 4.3 nM in [8]. The Ki in [5] came to 12 nM. This compound yielded a solubility (thermodynamic) in series [3] of 690 µg/mL (≈ 1430 µM).

In the case of `Cc1c(CN2CCN(C(=O)[C@H](C)N)CC2)sc2c(N3CCOCC3)nc(-c3cnc(N)nc3)nc12`, the results for the IC50 in series [4], in series [6] and in series [8] were 29 nM, 37 nM and 2.4 nM, respectively. The Ki in series [5] is 6.3 nM.

Consider `Cc1c(CN2CCN(C(=O)C(C)(C)N)CC2)sc2c(N3CCOCC3)nc(-c3cnc(N)nc3)nc12`, for which the IC50 is 44 nM in series [4], 20 nM in series [6] and 1.5 nM in series [8]. For the same compound, the affinity in series [5] corresponds to a Ki of 14 nM. The compound further gave a thermodynamic solubility in series [3] of 1000 µg/mL (≈ 1950 µM).

For the compound `Cc1c(CN2CCN(C(=O)CO)CC2)sc2c(N3CCOCC3)nc(-c3cnc(N)nc3)nc12`, the figures for the IC50 in series [4], in [6] and in series [8] were 19 nM, 10 nM and 5.6 nM, respectively. Besides, the affinity in series [7] corresponds to a Ki of 2.8 nM.

Regarding `Cc1c(CN2CCN(C(=O)C(C)(C)O)CC2)sc2c(N3CCOCC3)nc(-c3cnc(N)nc3)nc12`, the IC50 in series [4] amounted to 45 nM; in series [6] it was 25 nM; in series [8], 5 nM. In addition, the Ki in series [5] worked out at 14 nM. Also, in series [3], the solubility (thermodynamic) came to 600 µg/mL (≈ 1170 µM).

Turning to `CS(=O)(=O)N1CCN(Cc2cc3nc(-c4cnc(N)nc4)nc(N4CCOCC4)c3s2)CC1.O=C(O)C(F)(F)F`, in series [9], the clearance was 24 mL/min/kg.

Regarding `CS(=O)(=O)N1CCN(Cc2cc3nc(-c4cnc(N)nc4)nc(N4CCOCC4)c3s2)CC1.Cl`, the clearance in series [10] was determined as 22 mL/min/kg.

For the compound `Cc1c(CN2CCN(S(C)(=O)=O)CC2)sc2c(N3CCOCC3)nc(-c3cnc(N)nc3)nc12.O=C(O)C(F)(F)F`, the clearance in series [9] was found to be 13 mL/min/kg.

Turning to `Cc1c(CN2CCN(S(C)(=O)=O)CC2)sc2c(N3CCOCC3)nc(-c3cnc(N)nc3)nc12.Cl`, the clearance in [10] was determined as 5 mL/min/kg.

As for `Cc1c(CN2CCN(C(=O)CN)CC2)sc2c(N3CCOCC3)nc(-c3cnc(N)nc3)nc12.O=C(O)C(F)(F)F`, the clearance in series [9] is 140 mL/min/kg. In [11], the bioavailability is 0%.

As for `Cc1c(CN2CCN(C(=O)C(C)(C)N)CC2)sc2c(N3CCOCC3)nc(-c3cnc(N)nc3)nc12.O=C(O)C(F)(F)F`, the clearance in [9] stood at 84 mL/min/kg. The compound also came in with a bioavailability in [11] of 6%.

Compound `Cc1c(CN2CCN(C(=O)C(C)(C)O)CC2)sc2c(N3CCOCC3)nc(-c3cnc(N)nc3)nc12.O=C(O)C(F)(F)F` showed a clearance in [9] of 24 mL/min/kg. In addition, the bioavailability in [11] turned out to be 71%.
